Laboratory results taken from patent US9180115B2, “Cyclohexylamines” (Asana Biosciences, LLC, priority 2011, dated 2015).

Test system: sodium channel response in hTRPV1-N1E115 cells
Test: FLIPR membrane potential assay of sodium channel response in hTRPV1-N1E115 cells with or without heat (47° C.) activation
Assay type: cell-based
Settings: for hTRPV1-N1E Nav 0.1 mM (% inhibition) 25° C. / hTRPV1-N1E Nav 1 mM (% inhibition) 25° C.: 25° C. (no heat activation); for hTRPV1-N1E Nav 0.1 mM (% inhibition) 47° C. / hTRPV1-N1E Nav 1 mM (% inhibition) 47° C.: 47° C. (heat activated); for IC50: 47° C., read-out: hTRPV1-N1E IC50 (μM) 47° C.
Excerpt: In one embodiment, a modified FLIPR® (Fluorometric Imaging Plate Reader) based assay system was developed which is capable of discriminating between non-specific versus hTRPV1-mediated entry of test compounds. Advantageously, the assay system utilizes heat activated opening of hTRPV1 channels followed by an assessment of internal sodium channel block. The assay allows a permanently charged compound to selectively enter through opened hTRPV1 channels and that compound's potency in inhibiting sodium channels from the cytoplasm side of the same cell can be assessed and quantified.
The test compounds are diluted in the Assay Buffer and added to each well of a specific 384-well ‘compound plate’, which serves as a source plate for compound addition using the FLIPR® platform. The concentration of compounds in the compound-plate was adjusted to achieve the desired final concentration when added to the cells in the ‘cell-plate’. After completion of the dye incubation period, the dye loaded cell-plates and the compound source plates are inserted into the FLIPR® Tetra device with a 384 FLIPR® tip box (Molecular Devices, Inc.) according to manufacturer's instructions. The compounds are robotically added to the dye loaded cell-plates using software integral to the FLIPR® Tetra instrument.
Immediately following compound addition, hTRPV1 is activated, in one of the duplicate cell plates, by heating. Specifically, entire multi-well plate containing the compound-cells mixture is incubated at 47° C. for 10 minutes, after which they are returned to room temperature (about 25° C.) for a further 30 minutes. Heat activation of hTRPV1 was omitted from the replicate cell plate which was simply maintained at room temperature for the entire 40 minutes.
A membrane potential response is elicited in the dye- and compound-loaded cells by the addition of veratridine which is a known sodium channel ‘agonist’. As illustrated in an example herein, an agonist plate containing veratridine (Sigma) is prepared in advance and is inserted into suitable devices such as, e.g., the FLIPR® TETRA device for a “2nd addition” as instructed by the manufacturer. The concentration of veratridine in the ‘agonist plate’ was adjusted to achieve a final concentration of 100 μM when added to the cells in the cell-plate. Final concentrations of veratridine greater or lesser than 100 μM may also be used but the signal measured by the FLIPR® TETRA device or another suitable device may vary accordingly.
The exposure of the cells in the cell-plate to veratridine induces sodium channels in the cells to open and the resulting ion flux produces a membrane potential depolarization that is detected as a fluorescence signal by the FLIPR® Tetra Device. The activity of test compounds is determined by their ability to attenuate the veratridine-induced fluorescence signal, the most promising compounds are those that show an enhanced activity in the heat-activated cell plate over the non-heat-activated cell plate. This differential activity reflects enhanced compound uptake via the heat activated and open hTRPV1 channels and rests on the fact that sodium channel block requires test compounds to act from the cytoplasmic side of the cell membrane.
In vitro assays were developed for assessing the inhibition of sodium channel response with compounds following stimulation by heat (47° C.) in cells expressing hTRPV1.
(v) Membrane potential Assay to Assess Sodium Channel Function in hTRPV1-Expressing Cells • Cells were plated at 5000 per 50 μL [DMEM+10% FBS+300 μg/mL H\hygromycin] per well, in a 384 clear bottom poly-D-lysine coated plate and incubated at 37° C. and 5% CO2 for 48 hours. On the day of the assay, media were discarded gently and 30 μL of the dye [FMP blue dye was prepared in assay buffer] per well was added and dye-loading was allowed to proceed for 20 min at room temperature. […]

Structure (SMILES) | hTRPV1-N1E Nav 0.1 mM (% inhibition) 25° C. | hTRPV1-N1E Nav 0.1 mM (% inhibition) 47° C. | hTRPV1-N1E Nav 1 mM (% inhibition) 25° C. | hTRPV1-N1E Nav 1 mM (% inhibition) 47° C. | IC50
CC(C[N+](C)(C)C1CCCCC1)OC(=O)c1ccc(Cl)cc1Cl.[I-] (stereo not shown) [Example 10, N-[2-((2,4-Dichlorobenzoyl)oxy)propyl]-N,N-dimethyl-cyclohexanaminium iodide] | 10 (N = 4) % | 59 (N = 4) % | 61 (N = 4) % | 95 (N = 4) % | 100 to 1000 µM
CC(C[N+](C)(C)C1CCCCC1)OC(=O)c1ccccc1F.[I-] (stereo not shown) [Example 8, N-[2-((2-Fluorobenzoyl)oxy)propyl]-N,N-dimethyl-cyclohexanaminium iodide] | 14 (N = 4) % | 38 (N = 4) % | 22 (N = 4) % | 53 (N = 4) % | –
CC(C[N+](C)(C)C1CCCCC1)OC(=O)c1ccccc1[N+](=O)[O-].[I-] (stereo not shown) [Example 18, N,N-Dimethyl-N-[2-((2-nitrobenzoyl)oxy)propyl] cyclohexanaminium iodide] | 3 (N = 4) % | 41 (N = 4) % | 28 (N = 4) % | 66 (N = 4) % | –
Cc1ccsc1C(=O)OC(C)C[N+](C)(C)C1CCCCC1.[I-] (stereo not shown) [Example 37, N,N-Dimethyl-N-[2-((3-methylthiophene-2-carbonyl)oxy)propyl] cyclohexanaminium iodide] | 15 (N = 4) % | 31 (N = 4) % | 20 (N = 4) % | 70 (N = 4) % | –
COc1cccc(OC)c1C(=O)OC(C)C[N+](C)(C)C1CCCCC1.[I-] (stereo not shown) [Example 7, N-[2-((2,6-Dimethoxybenzoyl)oxy)propyl]-N,N-dimethyl-cyclohexanaminium iodide] | 1 (N = 4) % | 28 (N = 4) % | 0 (N = 4) % | 70 (N = 4) % | –
CC(C[N+](C)(C)C1CCCCC1)OC(=O)c1cccn1C.[I-] (stereo not shown) [Example 34, N,N-Dimethyl-N-[2-((1-methyl-1H-pyrrole-2-carbonyl)oxy)propyl] cyclohexanaminium iodide] | 35 (N = 4) % | 36 (N = 4) % | 35 (N = 4) % | 55 (N = 4) % | –
CC(C[N+](C)(C)C1CCCCC1)OC(=O)c1ccc(Cl)cc1.[I-] (stereo not shown) [Example 13, N-[2-((4-Chlorobenzoyl)oxy)propyl]-N,N-dimethyl-cyclohexanaminium iodide] | 0 (N = 4) % | 44 (N = 4) % | 51 (N = 4) % | 89 (N = 4) % | 10 to 100 µM
Cc1ccccc1C(=O)OC(C)C[N+](C)(C)C1CCCCC1.[I-] (stereo not shown) [Example 11, N,N-Dimethyl-N-[2-((2-methylbenzoyl)oxy)propyl] cyclohexanaminium iodide] | 16 (N = 4) % | 40 (N = 4) % | – | – | 100 to 1000 µM
CC(C[N+](C)(C)C1CCCCC1)OC(=O)c1ccc(C(F)(F)F)cc1.[I-] (stereo not shown) [Example 21, N,N-Dimethyl-N-[2-((4-(trifluoromethyl)benzoyl)oxy)propyl] cyclohexanaminium iodide] | 11 (N = 4) % | 57 (N = 4) % | 35 (N = 4) % | 96 (N = 4) % | 100 to 1000 µM
Cc1cccc(C)c1C(=O)O[C@H](C)C[N+](C)(C)C1CCCCC1.[I-] [Example 24, (R)-N-[2-((2,6-Dimethylbenzoyl)oxy)propyl]-N,N-dimethyl-cyclohexanaminium iodide] | 22 (N = 4) % | – | 81 (N = 4) % | – | 10 to 100 µM
CC(C[N+](C)(C)C1CCCCC1)OC(=O)c1ccc(F)cc1C(F)(F)F.[I-] (stereo not shown) [Example 15, N-[2-((4-Fluoro-2-(trifluoromethyl)benzoyl)oxy)propyl]-N,N-dimethyl-cyclohexanaminium iodide] | 6 (N = 4) % | 45 (N = 4) % | 59 (N = 4) % | 92 (N = 4) % | 100 to 1000 µM
Cc1cc(C)c(C(=O)OCC[N+](C)(C)C2CCCCC2)c(C)c1.[I-] [Example 41, N-[2-((2,4,6-Trimethylbenzoyl)oxy)ethyl]-N,N-dimethylcyclo-hexanaminium iodide] | 13 (N = 4) % | 66 (N = 4) % | 22 (N = 4) % | 89 (N = 4) % | 10 to 100 µM
CC(C[N+](C)(C)C1CCCCC1)OC(=O)c1ccccc1Cl.[I-] (stereo not shown) [Example 9, N-[2-((2-Chlorobenzoyl)oxy)propyl]-N,N-dimethyl-cyclohexanaminium iodide] | 16 (N = 4) % | 67 (N = 4) % | – | – | –
CC(C[N+](C)(C)C1CCCCC1)OC(=O)c1cccc(Cl)c1Cl.[I-] (stereo not shown) [Example 29, N-[2-((2,3-Dichlorobenzoyl)oxy)propyl]-N,N-dimethyl-cyclohexanaminium iodide] | 36 (N = 4) % | 52 (N = 4) % | 50 (N = 4) % | 61 (N = 4) % | 10 to 100 µM
CC(C)(C)c1ccc(C(=O)OCC[N+](C)(C)C2CCCCC2)cc1.[I-] [Example 43, N-[2-((4-(tert-butyl)benzoyl)oxy)ethyl]-N,N-dimethylcyclo-hexanaminium iodide] | 13 (N = 4) % | 78 (N = 4) % | – | – | 10 to 100 µM
CC(C[N+](C)(C)C1CCCCC1)OC(=O)c1ccccc1C(F)(F)F.[I-] (stereo not shown) [Example 17, N-[2-((2-(Trifluoromethyl)benzoyl)oxy)propyl]-N,N-dimethylcyclo-hexanaminium iodide] | 4 (N = 4) % | 54 (N = 4) % | 72 (N = 4) % | 96 (N = 4) % | 100 to 1000 µM
CC(C[N+](C)(C)C1CCCCC1)OC(=O)c1ccsc1.[I-] (stereo not shown) [Example 33, N,N-Dimethyl-N-[2-((thiophene-3-carbonyl)oxy)propyl] cyclohexanaminium iodide] | 3 (N = 4) % | 36 (N = 4) % | 23 (N = 4) % | 57 (N = 4) % | –
